The values that follow come from publication PMC12381781, “Structural and functional insights into the selective inhibition of mutant tau aggregation by purpurin and oleocanthal in frontotemporal dementia” (Protein Science : A Publication of the Protein Society, 2025).

Usually koff stands for the first-order rate constant of dissociation. What is called Kd is the equilibrium constant for the complex coming apart. One may read the IC50 as the concentration that inhibits the measured activity by half. Low values mean higher potency, high ones lower potency. In general, kon refers to the rate constant with which the complex forms. A lower kon goes with slower complex formation.

Like-named read-outs stand apart in the source and are kept apart here.

One data set has as its target R2R3 (N279K) tau peptide (Homo sapiens, UniProt P10636, N596K). Put plainly: SPR titration cycle kinetics, immobilized R2R3 (N279K) peptide. Format: binding. On the procedure: (§1) SPR experiments were conducted using the Sierra® SPR‐24 Pro system (Bruker Daltonics, Bremen, Germany), featuring a gold‐coated microfluidic array (24 detection spots, 3 × 8 format). Data acquisition and kinetic analysis were performed using SPR Analyzer 4 software.
(§2) All experiments were conducted at 25°C using PBS (pH 7.4) supplemented with 0.05% Tween‐20 and 5% DMSO as the running buffer to ensure assay reproducibility. Assay components, including 96‐well microtiter plates (Part # 1862984; Burker) and Microplate and Reservoir Sealer (Part #1862985; Burker), were used for sample handling and were compatible with the Sierra SPR®‐24 Pro system (Bruker Daltonics, Billerica, MA, USA).
WT and mutant (P301L, V287I, and N279K) tau peptides were dissolved in 10 mM sodium acetate buffer (pH 5.0; Burker) and immobilized onto High‐Capacity Amine Sensor Surfaces (Part #1862614; Bruker) using the Amine Coupling Kit (Part #1862634; Bruker). The sensor surface was preconditioned with a Surface Elution Buffer (Part #1862656; Bruker Daltonics) and 0.1M HCl to remove contaminants and improve binding specificity.
The surface was activated using 400 mM 1‐ethyl‐3‐(3‐dimethylaminopropyl) carbodiimide (Burker) and 50 mM N‐hydroxysuccinimide (Burker), enabling covalent attachment of tau peptides. Unreacted binding sites were blocked with 1M ethanolamine‐HCl (pH 8.5; Burker) to minimize nonspecific interactions. For each experiment, specific sensor spots (A/B/C) on channels 1–8 were designated for tau‐analyte interactions, with corresponding reference spots on the same channel for baseline correction. DMSO calibration solutions (4.6%, 4.8%, 5%, 5.2%, and 5.4%) were prepared for double referencing to compensate for DMSO solvent effects.
PUR and OLC were prepared in PBS (pH 7.4) supplemented with 0.05% Tween‐20 and 5% DMSO. Compound interactions with tau peptides were pre‐screened using a concentration range of 1–100 μM, and subsequent binding kinetics were evaluated at optimized concentrations. For kinetic studies, PUR was tested at […], while OLC was tested at 25–100 μM using two‐fold serial dilutions. Each analyte was sequentially injected, and association and dissociation phases were monitored to determine kinetic parameters.
SPR binding kinetics were assessed using the titration cycle kinetics (TCK) assay, which included consecutive association phases followed by a single dissociation phase. Pre‐assay simulations using the Kinetic Simulator feature of SPR Analyzer 4 software were used to optimize analyte concentration ranges and association/dissociation times. A reference blank injection was included for double referencing, and a single dissociation curve was recorded for the highest analyte concentration.
Sensorgrams were analyzed using the Kinetic Titration model, which was integrated into the global kinetic fitting model of the SPR Analyzer 4 software. This approach allowed for baseline correction and improved the reliability of kinetic parameters, including the Kon, Koff, and KD.
TCK‐derived kinetic parameters were compared across multiple runs and confirmed using Multi Injection Cycle Kinetics to validate reproducibility and accuracy.

The next data set deals with R2R3 (P301L) tau peptide (Homo sapiens, UniProt P10636, P618L). The data set can be described thus: Atomic force microscopy of R2R3 (P301L) aggregates. It is filed as biochemical. The note with it: compound 10 μM, 48 h. On the procedure: Aggregates collected after 48 h of aggregation were processed for AFM analysis as described previously (Annadurai, Malina, Malohlava, et al., [2022]).

In data set [1] the test system is CCRF-CEM (human leukemic lymphoblast) cells. Put plainly: MTS cytotoxicity assay, CCRF-CEM cells. Format: cell-based. The note with it: 0-100 µM, 72 h. On the procedure: Figure S16. Cytotoxic activity of PUR and OLC. Tau Biosensor and CCRF-CEM (human leukemic lymphoblast) cells were treated with increasing concentrations (0-100 µM) of PUR and OLC for 72 h. Cell viability was then assessed using the MTS assay. CCRF-CEM (human leukemic lymphoblasts) cells, known for their high sensitivity to cytotoxic agents ^1, were used as positive controls. […] Calculated IC50 values are indicated in the graphs. Mean ± SEM (n = 3).
(Tetrazolium assays rely on reduction of a dye to a coloured formazan, in cell work by metabolically active cells.)

Details of data set [2]: method as in Viswanathan et al., [2020]. Particulars: in vitro studies; ref Viswanathan et al., [2020]; cited from earlier work.
A further data set has as its system PHF6. Details: method as in Viswanathan et al., [2020]. Particulars: reduced efficacy at higher peptide:compound ratios such as 5:1; ref Viswanathan et al., [2020]; cited from earlier work.
The target in another data set is T1, R2R3 (WT) tau peptide (Homo sapiens, UniProt P10636).
T1 construct: Peptides spanning R2R3—including PHF6 and PHF6*; purchased ProteoGenix (Schiltigheim, France); host or cells: chemical synthesis (custom peptide)
Put plainly: SPR titration cycle kinetics, immobilized R2R3 (WT) peptide. Format: binding. Here is the method:
as §1, §2
WT and mutant (P301L, V287I, and N279K) tau peptides were dissolved in 10 mM sodium acetate buffer (pH 5.0; Burker) and immobilized onto High‐Capacity Amine Sensor Surfaces (Part #1862614; Bruker) using the Amine Coupling Kit (Part #1862634; Bruker). The sensor surface was preconditioned with a Surface Elution Buffer (Part #1862656; Bruker Daltonics) and 0.1M HCl to remove contaminants and improve binding specificity. […]
PUR and OLC were prepared in PBS (pH 7.4) supplemented with 0.05% Tween‐20 and 5% DMSO. Compound interactions with tau peptides were pre‐screened using a concentration range of 1–100 μM, and subsequent binding kinetics were evaluated at optimized concentrations. […] Each analyte was sequentially injected, and association and dissociation phases were monitored to determine kinetic parameters.
SPR binding kinetics were assessed using the titration cycle kinetics (TCK) assay, which included consecutive association phases followed by a single dissociation phase. […] A reference blank injection was included for double referencing, and a single dissociation curve was recorded for the highest analyte concentration.
Sensorgrams were analyzed using the Kinetic Titration model, which was integrated into the global kinetic fitting model of the SPR Analyzer 4 software. […]

Sequence of R2R3 (N279K) tau peptide (P10636 592-653 N596K): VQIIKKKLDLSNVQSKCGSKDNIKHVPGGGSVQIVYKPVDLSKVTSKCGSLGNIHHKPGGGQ
T1 sequence (P10636 592-653 limits assumed): as the sequence (P10636 592-653 N596K) above, with K5N counted along it
Sequence of R2R3 (P301L) tau peptide (P10636 592-653 P618L): as the sequence (P10636 592-653 N596K) above, with K5N, P27L counted along it

At R2R3 (N279K) tau peptide (SPR, R2R3 N279K), `C/C=C(/C=O)[C@@H](CC=O)CC(=O)OCCc1ccc(O)cc1` [OLC, oleocanthal] displayed a Kon of 34.60 M⁻¹ s⁻¹ and a koff of 6.87e-05 s⁻¹. For the same compound, at R2R3 (N279K) tau peptide (SPR, R2R3 N279K peptide immobilized, 25°C, PBS pH 7.4, read-out: KD), the Kd came to 1.98 µM. Besides, the “AFM morphology of aggregates” value at R2R3 (P301L) tau peptide was “only sparse fibrils”. This compound also registered a concentration for half-maximal inhibition (IC50) in data set [1] of over 10 µM.
On to `O=C1c2ccccc2C(=O)c2c(O)c(O)cc(O)c21` [PUR, purpurin], for which, in data set [2], the BBB permeation entry was “can permeate the BBB”. The equilibrium dissociation constant (Kd) at R2R3 (N279K) tau peptide came out at 4.22 µM; at R2R3 (WT) tau peptide (R2R3 WT peptide immobilized, 25°C, PBS pH 7.4), 4.35 µM. In addition, the on-rate constant (kon) on R2R3 (N279K) tau peptide (SPR, R2R3 N279K) stood at 70.3 M⁻¹ s⁻¹; at R2R3 (WT) tau peptide (R2R3 WT), 61 M⁻¹ s⁻¹. The dissociation rate constant (koff) worked out at 0.000297 s⁻¹ on R2R3 (N279K) tau peptide (SPR, R2R3 N279K, read-out: Koff) and 0.000265 s⁻¹ on R2R3 (WT) tau peptide (R2R3 WT). Also, the “AFM morphology of aggregates” value at R2R3 (P301L) tau peptide is recorded as “only sparse fibrils”. In the data set with PHF6, the PHF6 aggregation inhibition entry is given as “inhibits PHF6 aggregation”.
